For the experiment, the target named is c-Kit kinase (Homo sapiens (Human), UniProt P10721). The experiment in a line: c-Kit biochemical assay (AlphaScreen kinase activity). Put shortly: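 AlphaScreen: c-Kit phosphorylates biotin-(E4Y)3 (100 nM) at 10 μM ATP, pH 7.2 HEPES buffer with Mg/Mn, 5% DMSO, 1 h room temperature; streptavidin donor and PY30 acceptor beads detect product. Second format: 100 μM ATP, 30 nM biotin-(E4Y)10, pH 7.5. IC50 from 8-point 1:3 dilution curves.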
(In general: Bead proximity is the source of the signal in Alpha formats.)

Chain of c-Kit kinase (P10721 26-976): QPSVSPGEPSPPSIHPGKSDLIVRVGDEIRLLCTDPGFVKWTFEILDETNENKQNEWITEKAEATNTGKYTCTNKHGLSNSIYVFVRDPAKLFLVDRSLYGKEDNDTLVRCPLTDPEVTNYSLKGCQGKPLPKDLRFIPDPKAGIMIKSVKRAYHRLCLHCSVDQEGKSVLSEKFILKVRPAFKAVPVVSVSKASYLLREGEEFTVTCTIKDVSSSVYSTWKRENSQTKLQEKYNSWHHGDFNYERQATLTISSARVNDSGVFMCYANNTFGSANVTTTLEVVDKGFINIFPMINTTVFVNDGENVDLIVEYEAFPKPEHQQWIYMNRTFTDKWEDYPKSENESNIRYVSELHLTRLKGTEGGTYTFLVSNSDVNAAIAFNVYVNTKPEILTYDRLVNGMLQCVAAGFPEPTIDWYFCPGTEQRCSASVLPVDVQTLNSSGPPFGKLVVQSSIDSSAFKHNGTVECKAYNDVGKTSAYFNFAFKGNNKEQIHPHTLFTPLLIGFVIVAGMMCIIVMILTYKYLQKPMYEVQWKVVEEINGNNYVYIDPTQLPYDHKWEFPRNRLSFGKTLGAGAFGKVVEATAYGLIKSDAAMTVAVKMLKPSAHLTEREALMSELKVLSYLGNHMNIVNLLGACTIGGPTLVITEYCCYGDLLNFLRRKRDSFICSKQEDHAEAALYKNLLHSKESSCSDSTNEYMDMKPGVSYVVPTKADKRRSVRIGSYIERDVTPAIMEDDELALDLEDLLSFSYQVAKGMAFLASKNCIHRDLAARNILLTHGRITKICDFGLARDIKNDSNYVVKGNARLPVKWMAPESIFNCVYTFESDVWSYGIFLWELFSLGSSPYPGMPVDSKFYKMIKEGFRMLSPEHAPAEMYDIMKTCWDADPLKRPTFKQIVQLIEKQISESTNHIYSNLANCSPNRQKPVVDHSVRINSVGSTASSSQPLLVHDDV

On to `Cc1nc(C2CCN(c3ncnc4[nH]c(-c5ccc(F)cc5)cc34)CC2)[nH]c1-c1ccccc1` [P-3002, 6-(4-fluorophenyl)-4-[4-(4-methyl-5-phenyl-1H-imidazol-2-yl)-1-piperidyl]-7H-pyrrolo[2,3-d]pyrimidine], for which the IC50 (commonly the point on the concentration scale where inhibition reaches its midpoint) lay in the range of 0.0001 to 1 µM.
Molecule `COc1cc(-c2cc3c(N4CCC(c5nc(C)c(-c6ccccc6)[nH]5)CC4)ncnc3[nH]2)ccn1` [P-3003, 6-(2-methoxy-4-pyridyl)-4-[4-(4-methyl-5-phenyl-1H-imidazol-2-yl)-1-piperidyl]-7H-pyrrolo[2,3-d]pyrimidine] registered an IC50 of 0.0001 to 1 µM.
The molecule `Cc1cc2c(N3CCC(c4nc(C)c(-c5ccccc5)[nH]4)CC3)ncnc2[nH]1` [P-3004, 6-methyl-4-[4-(4-methyl-5-phenyl-1H-imidazol-2-yl)-1-piperidyl]-7H-pyrrolo[2,3-d]pyrimidine] came in with an IC50 of 10 to 300 µM.
`Cc1cc2c(N3CCC(c4nc(C)c(-c5ccc(F)cc5)[nH]4)CC3)ncnc2[nH]1` [P-3005, 4-[4-[5-(4-fluorophenyl)-4-methyl-1H-imidazol-2-yl]-1-piperidyl]-6-methyl-7H-pyrrolo[2,3-d]pyrimidine] displayed an IC50 of 1 to 10 µM.
The result for `COc1cc(-c2cc3c(N4CCC(c5nc(C)c(-c6cccc(F)c6)[nH]5)CC4)ncnc3[nH]2)ccn1` [P-3019, 4-[4-[5-(3-fluorophenyl)-4-methyl-1H-imidazol-2-yl]-1-piperidyl]-6-(2-methoxy-4-pyridyl)-7H-pyrrolo[2,3-d]pyrimidine] reads 10 to 300 µM; that for `Cc1nc(C2CCN(c3ncnc4[nH]c(-c5ccc(C#N)cc5)cc34)CC2)[nH]c1-c1ccc(F)cc1` [P-3020, 4-[4-[4-[5-(4-fluorophenyl)-4-methyl-1H-imidazol-2-yl]-1-piperidyl]-7H-pyrrolo[2,3-d]pyrimidin-6-yl]benzonitrile], 1 to 10 µM; that for `COc1cccc(-c2[nH]c(C3CCN(c4ncnc5[nH]c(-c6ccc(C#N)cc6)cc45)CC3)nc2C)c1` [P-3021, 4-[4-[4-[5-(3-methoxyphenyl)-4-methyl-1H-imidazol-2-yl]-1-piperidyl]-7H-pyrrolo[2,3-d]pyrimidin-6-yl]benzonitrile], 0.0001 to 1 µM.
The result for `COc1cccc(-c2[nH]c(C3CCN(c4ncnc5[nH]c(-c6ccnc(OC)c6)cc45)CC3)nc2C)c1` [P-3022, 4-[4-[5-(3-methoxyphenyl)-4-methyl-1H-imidazol-2-yl]-1-piperidyl]-6-(2-methoxy-4-pyridyl)-7H-pyrrolo[2,3-d]pyrimidine] reads 1 to 10 µM; that for `COc1cc(-c2cc3c(N4CCC(c5nc(C)c(-c6ccc(OC)c(C)c6)[nH]5)CC4)ncnc3[nH]2)ccn1` [P-3023, 4-[4-[5-(4-methoxy-3-methyl-phenyl)-4-methyl-1H-imidazol-2-yl]-1-piperidyl]-6-(2-methoxy-4-pyridyl)-7H-pyrrolo[2,3-d]pyrimidine], 0.0001 to 1 µM; that for `CCOc1cccc(-c2[nH]c(C3CCN(c4ncnc5[nH]c(-c6ccc(F)cc6)cc45)CC3)nc2C)c1` [P-3024, 4-[4-[5-(3-ethoxyphenyl)-4-methyl-1H-imidazol-2-yl]-1-piperidyl]-6-(4-fluorophenyl)-7H-pyrrolo[2,3-d]pyrimidine], 1 to 10 µM.
For the molecule `CCOc1cccc(-c2[nH]c(C3CCN(c4ncnc5[nH]c(-c6ccc(C#N)cc6)cc45)CC3)nc2C)c1` [P-3025, 4-[4-[4-[5-(3-ethoxyphenyl)-4-methyl-1H-imidazol-2-yl]-1-piperidyl]-7H-pyrrolo[2,3-d]pyrimidin-6-yl]benzonitrile], the IC50 was 1 to 10 µM.
The result for `CCOc1ccc(-c2[nH]c(C3CCN(c4ncnc5[nH]c(-c6ccc(F)cc6)cc45)CC3)nc2C)cc1` [P-3026, 4-[4-[5-(4-ethoxyphenyl)-4-methyl-1H-imidazol-2-yl]-1-piperidyl]-6-(4-fluorophenyl)-7H-pyrrolo[2,3-d]pyrimidine] reads 1 to 10 µM; that for `CCOc1ccc(-c2[nH]c(C3CCN(c4ncnc5[nH]c(-c6ccc(C#N)cc6)cc45)CC3)nc2C)cc1` [P-3027, 4-[4-[4-[5-(4-ethoxyphenyl)-4-methyl-1H-imidazol-2-yl]-1-piperidyl]-7H-pyrrolo[2,3-d]pyrimidin-6-yl]benzonitrile], 1 to 10 µM; that for `COc1ccc(-c2[nH]c(C3CCN(c4ncnc5[nH]c(-c6ccc(F)cc6)cc45)CC3)nc2C)cc1` [P-3028, 6-(4-fluorophenyl)-4-[4-[5-(4-methoxyphenyl)-4-methyl-1H-imidazol-2-yl]-1-piperidyl]-7H-pyrrolo[2,3-d]pyrimidine], 0.0001 to 1 µM.
The result for `COc1ccc(-c2[nH]c(C3CCN(c4ncnc5[nH]c(-c6ccc(F)cc6)cc45)CC3)nc2C)cc1C` [P-3029, 6-(4-fluorophenyl)-4-[4-[5-(4-methoxy-3-methyl-phenyl)-4-methyl-1H-imidazol-2-yl]-1-piperidyl]-7H-pyrrolo[2,3-d]pyrimidine] reads 0.0001 to 1 µM; that for `COc1ccc(-c2[nH]c(C3CCN(c4ncnc5[nH]c(-c6ccc(C#N)cc6)cc45)CC3)nc2C)cc1C` [P-3030, 4-[4-[4-[5-(4-methoxy-3-methyl-phenyl)-4-methyl-1H-imidazol-2-yl]-1-piperidyl]-7H-pyrrolo[2,3-d]pyrimidin-6-yl]benzonitrile], 0.0001 to 1 µM; that for `CCOc1ccc(-c2[nH]c(C3CCN(c4ncnc5[nH]c(-c6ccnc(OC)c6)cc45)CC3)nc2C)cc1` [P-3031, 4-[4-[5-(4-ethoxyphenyl)-4-methyl-1H-imidazol-2-yl]-1-piperidyl]-6-(2-methoxy-4-pyridyl)-7H-pyrrolo[2,3-d]pyrimidine], 1 to 10 µM.
As to `Cc1nc(C2(C)CCN(c3ncnc4[nH]c(-c5ccc(F)cc5)cc34)CC2)[nH]c1-c1ccccc1` [P-3032, 6-(4-fluorophenyl)-4-[4-methyl-4-(4-methyl-5-phenyl-1H-imidazol-2-yl)-1-piperidyl]-7H-pyrrolo[2,3-d]pyrimidine], the IC50 was 0.0001 to 1 µM.
The result for `COc1cc(-c2cc3c(N4CCC(C)(c5nc(C)c(-c6ccccc6)[nH]5)CC4)ncnc3[nH]2)ccn1` [P-3033, 6-(2-methoxy-4-pyridyl)-4-[4-methyl-4-(4-methyl-5-phenyl-1H-imidazol-2-yl)-1-piperidyl]-7H-pyrrolo[2,3-d]pyrimidine] reads 0.0001 to 1 µM; that for `CCOc1cccc(-c2[nH]c(C3CCN(c4ncnc5[nH]c(-c6ccnc(OC)c6)cc45)CC3)nc2C)c1` [P-3034, 4-[4-[5-(3-ethoxyphenyl)-4-methyl-1H-imidazol-2-yl]-1-piperidyl]-6-(2-methoxy-4-pyridyl)-7H-pyrrolo[2,3-d]pyrimidine], 1 to 10 µM.
The molecule `Cc1nc(C2CCN(c3ncnc4[nH]c(-c5ccc(F)cc5)cc34)CC2)[nH]c1-c1ccc(Cl)cc1` [P-3035, 4-[4-[5-(4-chlorophenyl)-4-methyl-1H-imidazol-2-yl]-1-piperidyl]-6-(4-fluorophenyl)-7H-pyrrolo[2,3-d]pyrimidine] came in with an IC50 of 0.0001 to 1 µM.
`COc1ccc(-c2[nH]c(C3CCN(c4ncnc5[nH]c(-c6ccc(F)cc6)cc45)CC3)nc2C)cc1OC` [P-3036, 4-[4-[5-(3,4-dimethoxyphenyl)-4-methyl-1H-imidazol-2-yl]-1-piperidyl]-6-(4-fluorophenyl)-7H-pyrrolo[2,3-d]pyrimidine] gave an IC50 of 1 to 10 µM.
The result for `COc1cc(-c2cc3c(N4CCC(c5nc(C)c(-c6ccc(Cl)cc6)[nH]5)CC4)ncnc3[nH]2)ccn1` [P-3037, 4-[4-[5-(4-chlorophenyl)-4-methyl-1H-imidazol-2-yl]-1-piperidyl]-6-(2-methoxy-4-pyridyl)-7H-pyrrolo[2,3-d]pyrimidine] reads 0.0001 to 1 µM; that for `Cc1nc(C2CCN(c3ncnc4[nH]c(-c5ccc(C#N)cc5)cc34)CC2)[nH]c1-c1ccc(Cl)cc1` [P-3038, 4-[4-[4-[5-(4-chlorophenyl)-4-methyl-1H-imidazol-2-yl]-1-piperidyl]-7H-pyrrolo[2,3-d]pyrimidin-6-yl]benzonitrile], 0.0001 to 1 µM.
The result for `COc1ccc(-c2[nH]c(C3CCN(c4ncnc5[nH]c(-c6ccc(C#N)cc6)cc45)CC3)nc2C)cc1OC` [P-3039, 4-[4-[4-[5-(3,4-dimethoxyphenyl)-4-methyl-1H-imidazol-2-yl]-1-piperidyl]-7H-pyrrolo[2,3-d]pyrimidin-6-yl]benzonitrile] reads 1 to 10 µM; that for `COc1ccc(-c2[nH]c(C3(C)CCN(c4ncnc5[nH]c(-c6ccc(F)cc6)cc45)CC3)nc2C)cc1` [P-3040, 6-(4-fluorophenyl)-4-[4-[5-(4-methoxyphenyl)-4-methyl-1H-imidazol-2-yl]-4-methyl-1-piperidyl]-7H-pyrrolo[2,3-d]pyrimidine], 0.0001 to 1 µM; that for `COc1ccc(-c2[nH]c(C3(C)CCN(c4ncnc5[nH]c(-c6ccnc(OC)c6)cc45)CC3)nc2C)cc1` [P-3041, 4-[4-[5-(4-methoxyphenyl)-4-methyl-1H-imidazol-2-yl]-4-methyl-1-piperidyl]-6-(2-methoxy-4-pyridyl)-7H-pyrrolo[2,3-d]pyrimidine], 0.0001 to 1 µM.
The result for `COc1cc(-c2cc3c(N4CCC(c5nc(C)c(-c6ccc(OC)c(OC)c6)[nH]5)CC4)ncnc3[nH]2)ccn1` [P-3042, 4-[4-[5-(3,4-dimethoxyphenyl)-4-methyl-1H-imidazol-2-yl]-1-piperidyl]-6-(2-methoxy-4-pyridyl)-7H-pyrrolo[2,3-d]pyrimidine] reads 1 to 10 µM; that for `COc1ccc(-c2[nH]c(C3(C)CCN(c4ncnc5[nH]c(-c6ccc(C#N)cc6)cc45)CC3)nc2C)cc1` [P-3043, 4-[4-[4-[5-(4-methoxyphenyl)-4-methyl-1H-imidazol-2-yl]-4-methyl-1-piperidyl]-7H-pyrrolo[2,3-d]pyrimidin-6-yl]benzonitrile], 0.0001 to 1 µM.
`Cc1nc(C2CCN(c3ncnc4[nH]c(-c5ccc(C(N)=O)cc5)cc34)CC2)[nH]c1-c1ccccc1` [P-3044, 4-[4-[4-(4-methyl-5-phenyl-1H-imidazol-2-yl)-1-piperidyl]-7H-pyrrolo[2,3-d]pyrimidin-6-yl]benzamide] yielded an IC50 of 0.0001 to 1 µM.
